Experimental data reported in patent US20240425479A1, “HALO-SUBSTITUTED AMINO AZA-HETEROARYL COMPOUNDS AS INHIBITORS OF THE HAEMATOPOIETIC PROGENITOR KINASE 1 (HPK1)” (priority 2021, published 2024).

Target: T1, Recombinant (1-346) HPK1 (h) (Homo sapiens, UniProt Q92918)
T1 construct: Recombinant (1-346) HPK1 (h) is incubated with 8 mM MOPS pH 7.0
T1 sequence (Q92918 1-346): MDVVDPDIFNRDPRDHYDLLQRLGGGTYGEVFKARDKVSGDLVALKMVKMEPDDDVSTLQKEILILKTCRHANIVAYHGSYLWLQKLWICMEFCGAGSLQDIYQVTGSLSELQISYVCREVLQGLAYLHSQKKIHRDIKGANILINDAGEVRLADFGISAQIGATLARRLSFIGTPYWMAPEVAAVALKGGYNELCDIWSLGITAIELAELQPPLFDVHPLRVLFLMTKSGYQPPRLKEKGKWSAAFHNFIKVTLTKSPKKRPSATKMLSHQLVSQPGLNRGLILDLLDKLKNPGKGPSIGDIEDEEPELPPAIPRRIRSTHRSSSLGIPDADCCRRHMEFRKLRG
Experiment: HPK1 human STE kinase enzymatic radiometric assay
Format: biochemical
Settings: read-out: HPK1 IC50 nM Range
Method in brief: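 Compounds in 3-fold, 9-point serial dilution; kinase (residues 1-346) phosphorylates myelin basic protein (0.33 mg/mL) using [gamma-33P]-ATP at pH 7.0 (MOPS, EDTA, Mg acetate) for 40 min, room temperature. Acid-quenched mixture filtered onto P30 mats; incorporated radioactivity read by scintillation counting.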

Structure (SMILES) | IC50 [nM]
Cc1c[nH]c(=O)c2ccc(-c3nc(-c4ccc(N5CCOCC5)c(CN5CCCC5)c4)c(F)nc3N)cc12 [Example I-203, 6-(3-amino-5-fluoro-6-(4-morpholino-3-(pyrrolidin-1-ylmethyl)phenyl)pyrazin-2-yl)-4-methylisoquinolin-1(2H)-one] | 0.1 to 10
Cc1[nH]c(=O)c2c(F)cc(-c3nc(-c4ccc(N5CCN(CC6CC6)CC5)cc4)c(F)nc3N)cc2c1Cl [Example I-107, 6-(3-amino-6-(4-(4-(cyclopropylmethyl)piperazin-1-yl)phenyl)-5-fluoropyrazin-2-yl)-4-chloro-8-fluoro-3-methylisoquinolin-1(2H)-one] | 0.1 to 10
C[C@@H]1CCCN1Cc1cc(-c2nc(-c3ccc4c(=O)[nH]cc(F)c4c3)c(N)nc2F)ccc1C1CCOCC1 [Example I-226, (R)-6-(3-amino-5-fluoro-6-(3-((2-tmethylpyrrolidin-1-yl)methyl)-4-(tetrahydro-2H-pyran-4-yl)phenyl)pyrazin-2-yl)-4-fluoroisoquinolin-1(2H)-one] | 0.1 to 10
Cc1nc2cc(-c3nc(-c4ccc(N5CCOCC5)c(CN(C)C)c4)c(F)nc3N)ccc2c(=O)[nH]1 [Example I-77, 7-(3-amino-6-(3-((dimethylamino)methyl)-4-morpholinophenyl)-5-fluoropyrazin-2-yl)-2-methylquinazolin-4(3H)-one] | 11 to 100
Cc1[nH]c(=O)c2ccc(-c3nc(-c4ccc(N5CC6(CN(C)CCO6)C5)cc4)c(F)nc3N)cc2c1F [Example I-123, 6-(3-amino-5-fluoro-6-(4-(8-methyl-5-oxa-2,8-diazaspiro[3.5]nonan-2-yl)phenyl)pyrazin-2-yl)-4-fluoro-3-methylisoquinolin-1(2H)-one] | 11 to 100
C[C@@H]1CN(c2ccc(-c3nc(-c4ccc5c(=O)[nH]cc(F)c5c4)c(N)nc3F)cc2)C[C@H](C)N1C [Example I-93, 6-(3-amino-5-fluoro-6-(4-((3R,5S)-3,4,5-trimethylpiperazin-1-yl)phenyl)pyrazin-2-yl)-4-fluoroisoquinolin-1(2H)-one] | 0.1 to 10
CC(C)N1CCN(c2ccc(-c3nc(-c4cc5c(F)c[nH]c(=O)c5cc4F)c(N)nc3F)cc2)CC1 [Example I-140, 6-(3-amino-5-fluoro-6-(4-(4-isopropylpiperazin-1-yl)phenyl)pyrazin-2-yl)-4,7-difluoroisoquinolin-1(2H)-one] | 0.1 to 10
Cc1cc(-c2nc(-c3cc4c(cc3F)C(=O)NCC4)c(N)nc2F)ccc1C1CCOCC1 [Example I-222, 6-(3-amino-5-fluoro-6-(3-methyl-4-(tetrahydro-2H-pyran-4-yl)phenyl)pyrazin-2-yl)-7-fluoro-3,4-dihydroisoquinolin-1(2H)-one] | 0.1 to 10
Nc1nc(F)c(-c2ccc(N3CCOCC3)c(CN3CCC3)c2F)nc1-c1cc2c(cc1F)C(=O)NCC2 [Example I-244, 6-(3-amino-6-(3-(azetidin-1-ylmethyl)-2-fluoro-4-morpholinophenyl)-5-fluoropyrazin-2-yl)-7-fluoro-3,4-dihydroisoquinolin-1(2H)-one] | 11 to 100
Nc1nc(F)c(-c2ccc(N3CCN(CCCC(F)F)CC3)cc2)nc1-c1cc2c(cc1F)C(=O)NCC2 [Example I-69, 6-(3-amino-6-(4-(4-(4,4-difluorobutyl)piperazin-1-yl)phenyl)-5-fluoropyrazin-2-yl)-7-fluoro-3,4-dihydroisoquinolin-1(2H)-one] | 0.1 to 10
Cc1c[nH]c(=O)c2ccc(-c3nc(-c4ccc(N5CCOCC5)c(CN5CCC5)c4)c(F)nc3N)cc12 [Example I-202, 6-(3-amino-6-(3-(azetidin-1-ylmethyl)-4-morpholinophenyl)-5-fluoropyrazin-2-yl)-4-methylisoquinolin-1(2H)-one] | 0.1 to 10
CN(C)Cc1cc(-c2nc(-c3cc4c(cc3F)C(=O)NCC4)c(N)nc2F)ccc1OCC1CCOCC1 [Example I-179, 6-(3-amino-6-(3-((dimethylamino)methyl)-4-((tetrahydro-2H-pyran-4-yl)methoxy)phenyl)-5-fluoropyrazin-2-yl)-7-fluoro-3,4-dihydroisoquinolin-1(2H)-one] | 0.1 to 10
Cc1[nH]c(=O)c2ccc(-c3nc(-c4ccc(N5CCN(C(C)C)CC5)cc4)c(F)nc3N)cc2c1Cl [Example I-43, 6-(3-amino-5-fluoro-6-(4-(4-isopropylpiperazin-1-yl)phenyl)pyrazin-2-yl)-4-chloro-3-methylisoquinolin-1(2H)-one] | 0.1 to 10
CCN(C)Cc1cc(-c2nc(-c3ccc4c(c3)C(F)(F)CNC4=O)c(N)nc2F)ccc1C1=CCOCC1 [Example I-225, 6-(3-amino-6-(4-(3,6-dihydro-2H-pyran-4-yl)-3-((ethyl(methyl)amino)methyl)phenyl)-5-fluoropyrazin-2-yl)-4,4-difluoro-3,4-dihydroisoquinolin-1(2H)-one] | 11 to 100
Cc1c[nH]c(=O)c2ccc(-c3nc(-c4cc(F)c(N5CCOCC5)c(CN(C)C)c4)c(F)nc3N)cc12 [Example I-266, 6-(3-amino-6-(3-((dimethylamino)methyl)-5-fluoro-4-morpholinophenyl)-5-fluoropyrazin-2-yl)-4-methylisoquinolin-1(2H)-one] | 0.1 to 10
COC1CCN(Cc2cc(-c3nc(-c4cc5c(cc4F)C(=O)NCC5)c(N)nc3F)ccc2N2CCOCC2)CC1 [Example I-118, 6-(3-amino-5-fluoro-6-(3-((4-methoxypiperidin-1-yl)methyl)-4-morpholinophenyl)pyrazin-2-yl)-7-fluoro-3,4-dihydroisoquinolin-1(2H)-one] | 11 to 100
Nc1nc(F)c(-c2ccc(N3CCN(C4CCC4)CC3)cc2)nc1-c1cc(F)c2c(c1)CCNC2=O [Example I-47, 6-(3-amino-6-(4-(4-cyclobutylpiperazin-1-yl)phenyl)-5-fluoropyrazin-2-yl)-8-fluoro-3,4-dihydroisoquinolin-1(2H)-one] | 0.1 to 10
CN(C)Cc1cc(-c2nc(-c3ccc4c(c3)C3(CC3)CNC4=O)c(N)nc2F)ccc1N1CCOCC1 [Example I-105, 6′-(3-amino-6-(3-((dimethylamino)methyl)-4-morpholinophenyl)-5-fluoropyrazin-2-yl)-2′,3′-dihydro-1′H-spiro[cyclopropane-1,4′-isoquinolin]-1′-one] | 0.1 to 10
Cc1c[nH]c(=O)c2ccc(-c3nc(-c4ccc(F)c(CN(C)C)c4)c(F)nc3N)cc12 [Example I-275, 6-(3-amino-6-(3-((dimethylamino)methyl)-4-fluorophenyl)-5-fluoropyrazin-2-yl)-4-methylisoquinolin-1(2H)-one] | 11 to 100
COC1CN(Cc2cc(-c3nc(-c4ccc5c(c4)CCNC5=O)c(N)nc3F)ccc2N2CCOCC2)C1 [Example I-188, 6-(3-amino-5-fluoro-6-(3-((3-methoxyazetidin-1-yl)methyl)-4-morpholinophenyl)pyrazin-2-yl)-3,4-dihydroisoquinolin-1(2H)-one] | 0.1 to 10
C[C@@H]1CN(c2ccc(-c3nc(-c4cc5c(cc4F)C(=O)NCC5)c(N)nc3F)cc2)C[C@H](C)N1C [Example I-58, 6-(3-amino-5-fluoro-6-(4-((3R,5S)-3,4,5-trimethylpiperazin-1-yl)phenyl)pyrazin-2-yl)-7-fluoro-3,4-dihydroisoquinolin-1(2H)-one] | 0.1 to 10
Nc1nc(F)c(-c2ccc(N3CCOCC3)c(CN3CCC3)c2F)nc1-c1cc(F)c2c(c1)CCNC2=O [Example I-245, 6-(3-amino-6-(3-(azetidin-1-ylmethyl)-2-fluoro-4-morpholinophenyl)-5-fluoropyrazin-2-yl)-8-fluoro-3,4-dihydroisoquinolin-1(2H)-one] | 11 to 100
